≈ marks a conversion by molar mass, not a printed value. Where only a bound is given, the exact number is not on record here.

Consider twelve compounds from ChEMBL document CHEMBL1131207, “Discovery and evaluation of a series of 3-acylindole imidazopyridine platelet-activating factor antagonists” (J Med Chem, 1998).

The nature of series [1]: The compound was evaluated for its solubility in lactate buffer at pH 3. The format is ADME.
Series [2] concerns the target Platelet-activating factor receptor (Rattus norvegicus) (UniProt P46002). Kind of series: Ability to block the effect of exogenously administered PAF upon intravenous administration in PAF-induced rat skin permeability assay. It counts as functional, organism-based.
The test system of series [3] is Rattus norvegicus. Kind of series: The compound was evaluated for its PAF-induced vascular permeability in rat when dosed orally. The note with it: po. The format is functional.
Series [4] relates to Cavia porcellus. Kind of series: The compound was evaluated for PAF-induced vascular permeability in guinea pig when dosed orally. The format is functional. Conditions: po.
For series [5], the target named is Platelet-activating factor receptor (Homo sapiens, UniProt P25105). Briefly: The compound was evaluated for its binding affinity against PAF receptor in human platelet.
Series [6] is described as follows: The bioavailability in monkey was evaluated. It counts as ADME, organism-based. The note with it: primates, in vivo.
The test system of series [7] is Cavia porcellus. Kind of series: The compound was evaluated for PAF-induced vascular permeability in guinea pig when dosed intravenously. It counts as functional. The note with it: iv.
A short description of series [8]: The solubility in lactate buffer at pH 3 was evaluated. The format is ADME.
A short description of series [9]: The bioavailability in rat was evaluated. It counts as ADME, organism-based. The note with it: in vivo.
Series [10] has as its target Platelet-activating factor receptor (Rattus norvegicus) (UniProt P46002). Briefly: Tested in vivo for to block the effect of exogenously administered PAF upon oral administration in PAF-induced rat skin permeability assay. It counts as functional, organism-based.
Series [11] has as its system Cavia porcellus. Kind of series: The compound was evaluated for its PAF-induced vascular permeability in guinea pig when dosed intravenously. It counts as functional. The note with it: iv.
The test system of series [12] is Rattus norvegicus. Kind of series: The compound was evaluated for its PAF-induced vascular permeability in rat when dosed intravenously. It counts as functional. The note with it: iv.
The test system of series [13] is Cavia porcellus. Kind of series: The compound was evaluated for its PAF-induced vascular permeability in guinea pig when dosed orally. The format is functional. The note with it: po.
Series [14] is described as follows: The compound was evaluated for its bioavailability in rat. The format is ADME, organism-based. The note with it: in vivo.
Series [15] can be described thus: The compound was evaluated for its bioavailability in monkey. It counts as ADME, organism-based. The note with it: primates, in vivo.

Platelet-activating factor receptor, sequence (P25105 whole entry): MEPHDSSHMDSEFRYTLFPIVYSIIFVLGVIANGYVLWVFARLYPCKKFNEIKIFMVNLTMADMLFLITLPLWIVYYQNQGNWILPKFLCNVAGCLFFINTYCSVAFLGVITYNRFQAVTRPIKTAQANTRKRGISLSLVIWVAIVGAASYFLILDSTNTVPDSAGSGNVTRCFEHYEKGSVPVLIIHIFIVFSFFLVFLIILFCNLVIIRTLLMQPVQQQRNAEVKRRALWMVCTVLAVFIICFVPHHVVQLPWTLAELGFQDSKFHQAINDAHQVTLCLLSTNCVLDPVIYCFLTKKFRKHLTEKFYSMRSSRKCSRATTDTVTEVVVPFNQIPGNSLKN
Platelet-activating factor receptor (Rattus norvegicus), sequence (P46002 whole entry): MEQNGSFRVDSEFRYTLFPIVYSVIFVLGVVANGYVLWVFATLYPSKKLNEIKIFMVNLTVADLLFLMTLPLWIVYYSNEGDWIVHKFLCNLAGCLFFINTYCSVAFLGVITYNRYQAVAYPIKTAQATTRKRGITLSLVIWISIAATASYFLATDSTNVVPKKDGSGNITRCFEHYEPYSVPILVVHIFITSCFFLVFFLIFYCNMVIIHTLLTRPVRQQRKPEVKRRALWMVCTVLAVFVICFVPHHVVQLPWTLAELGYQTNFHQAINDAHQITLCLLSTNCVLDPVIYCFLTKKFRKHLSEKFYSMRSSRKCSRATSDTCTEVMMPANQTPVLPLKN

As a reminder, the solubility is how much of the substance goes into solution per volume. What is called ED50 is the dose at which the effect has come halfway, by size or by number of responders. On to `Cc1nc2cnccc2n1Cc1ccc(C(=O)c2cn(C(=O)N(C)C)c3cc(-c4ccc(F)cc4)ccc23)cc1`, for which the concentration in solution in series [1] (solubility) came to 0.12 mg/mL (≈ 0.226 mM). Further, the ED50 was 0.068 mg/kg in [2] and 0.5 mg/kg in the series with Rattus norvegicus [3].

One may read the Ki as a measure of affinity in units of concentration, obtained from inhibition or displacement. One may read the bioavailability as dose-corrected exposure relative to a reference, in per cent. Take `C#Cc1cccc2c1c(C(=O)c1ccc(Cn3c(C)nc4cnccc43)c(F)c1)cn2C(=O)N(C)C`: the ED50 in the series with Cavia porcellus [4] was 0.29 mg/kg; in the series on Cavia porcellus [7] it was 0.016 mg/kg; in series [10], 0.094 mg/kg; in series [2], 0.003 mg/kg. Further, in series [5], the affinity, expressed as Ki, was 0.57 nM. Further, the values for the bioavailability in [6] and in series [9] were 56% and 49%, respectively. In [8], this compound gave a solubility of more than 20 mg/mL.

On to `COC(=O)c1cccc2c1c(C(=O)c1ccc(Cn3c(C)nc4cnccc43)cc1)cn2CC(=O)N(C)C`, for which the figures for the ED50 in series [10] and in [2] were 2.4 mg/kg and 0.012 mg/kg, respectively.

For the compound `COC(=O)c1cccc2c1c(C(=O)CCCCCn1c(C)nc3cnccc31)cn2C(=O)N(C)C`, the ED50 in series [10] is 1.1 mg/kg; in series [2], 0.013 mg/kg.

As to `CCc1cccc2c1c(C(=O)c1ccc(Cn3c(C)nc4cnccc43)cc1)cn2C(=O)N(C)C`, the ED50 in [10] was found to be 0.078 mg/kg; in [2] it was 0.003 mg/kg.

For `Cc1nc2cnccc2n1CCCCCC(=O)c1cn(C(=O)N(C)C)c2cccc(-c3ccc(F)cc3)c12`, the ED50 in series [10] is more than 1 mg/kg; in series [2] it was 0.005 mg/kg.

Turning to `Cc1nc2cnccc2n1Cc1ccc(C(=O)c2cn(C(=O)N(C)C)c3cccc(C(=O)N(C)C)c23)cc1`, the ED50 stood at 1.3 mg/kg in series [10] and 0.028 mg/kg in series [2].

Take `Cc1nc2cnccc2n1Cc1ccc(C(=O)c2cn(C(=O)N(C)C)c3cccc(Br)c23)cc1`: the ED50 in [10] is 0.13 mg/kg; in series [2], 0.007 mg/kg.

For the compound `CCOC(=O)[C@H](CC(C)C)N(C)S(=O)(=O)c1ccc(Cn2c(C)nc3cnccc32)cc1` [LEXIPAFANT], the ED50 in the series on Cavia porcellus [11] was 0.027 mg/kg; with Rattus norvegicus [12], 0.02 mg/kg; in the series with Cavia porcellus [13], 10.3 mg/kg; in the series on Rattus norvegicus [3], 0.8 mg/kg. The affinity in series [5], expressed as Ki, was 0.38 nM. The compound further displayed a solubility in series [1] of more than 20 mg/mL.

With `COC(=O)c1cc(Br)cc2c1c(C(=O)c1ccc(Cn3c(C)nc4cnccc43)cc1)cn2C(=O)N(C)C`, the figures for the ED50 in series [10] and in series [2] were 0.83 mg/kg and 0.009 mg/kg, respectively.

Turning to `CC(=O)OC[n+]1cccc([C@H]2SCc3c(C(=O)c4cn(C(=O)N(C)C)c5cc(-c6ccc(F)cc6)ccc45)ccn32)c1.[Cl-]`, the ED50 with Cavia porcellus [11] is 0.09 mg/kg; with Rattus norvegicus [12], 0.006 mg/kg; in the series with Cavia porcellus [13], 0.08 mg/kg; with Rattus norvegicus [3], 0.08 mg/kg. The compound also yielded a Ki in series [5] of 0.98 nM. Also, the bioavailability in series [14] amounted to 46%; in [15], 36%.

On to `COC(=O)c1cccc2c1c(C(=O)CN1CCC(n3c(C)nc4cnccc43)CC1)cn2C(=O)N(C)C`, for which the results for the ED50 in [10] and in [2] were more than 1 mg/kg and 0.006 mg/kg, respectively.
